These results are taken from EP2292624A1, “Process for the purification of olanzapine” (LEK Pharmaceuticals d.d., priority 2009, dated 2011).

For the data set the following is noted: water; printed as 'approximately up to about'.

Counter-ions that a name gives are not always drawn.

Take `Cc1cc2c(s1)Nc1ccccc1N=C2N1CCN(C)CC1` [oxalic acid addition salt of olanzapine]: the aqueous solubility result is “up to 800 mg/mL”.
